# Measured values published in US8742102B2, “Process for enantiomeric separation of racemic dihydro-1,3,5 triazines via preferential crystallization” (Poxel, priority 2009, dated 2014).
# Experiment: Concentration of saturated solution of racemic HCl salt in EtOH, determined by HPLC
# Format: physicochemical
# Experimental: A saturated solution of racemic HCl salt is prepared by heating 50 g of salt in EtOH (350 ml) to reflux. A clear solution is formed. This is allowed to cool to 40° C. The mixture is seeded with a slurry of racemic HCl salt.
# Crystallization is observed. This is allowed to equilibrate overnight. The mixture is filtered into the reaction vessel (preheated to 40° C.). This is heated to 60° C. to ensure complete dissolution, cooled to 40° C. and sampled to determine the concentration by HPLC. This is then cooled to 13° C. in increments of 1° C./5 min. At 13° C. a small amount of crystallisation is observed. A seed sample is also added and this is allowed to equilibrate overnight. A sample is removed for concentration determination at 13° C.
smiles,measurement,setting,value
"CC1N=C(N)NC(N(C)C)=N1 (racemic) [A1, 2-amino-3,6-dihydro-4-dimethylamino-6-methyl-1,3,5-triazine]",Concentration of sat. solution at 40° C.,equilibrated at 40° C.,92200 µg/mL
same,Concentration at 13° C.,equilibrated overnight at 13° C.,69740 µg/mL
